Test [1] relates to TNFα production in RAW 264.7 macrophage cell line. In words: Mouse TNF alpha quantification assay (LPS-stimulated macrophages, ELISA). Type of test: cell-based. To be noted: RAW264.7, RAW 264.7 murine leukemia virus transformed macrophage cell lines, LPS stimulation, read-out: TNF-α % Inhibition at 30 μM.
For test [2], the system named is IL6 production in RAW 264.7 macrophage cell line. Nature of the test: Mouse IL6 quantification assay (LPS-stimulated macrophages, ELISA). It counts as cell-based. To be noted: RAW264.7, RAW 264.7 murine leukemia virus transformed macrophage cell lines, LPS stimulation, read-out: IL-6 % Inhibition at 30 μM.

Take `c1ccc(-c2nc(N3CCOCC3)c3ccsc3n2)nc1` [drawing 2127]: the inhibition at 30 µM in test [1] and in test [2] was 1 to 25% each time.
As to `CC1(N)CCN(C(=O)c2csc3c(O)nc(-c4ccccn4)nc23)CC1` [drawing 2111], the inhibition at 30 µM was 0% in test [1] and 1 to 25% in test [2].
As for `CC(C)Oc1cnc(-c2ccccn2)nc1O` [drawing 2319], the inhibition at 30 µM in test [1] lay in the range of 1 to 25%; in test [2] it was 76 to 100%.
The matching figures for `CC1CCN(C(=O)c2csc3c(O)nc(-c4ccccn4)nc23)CC1` [drawing 2101]: 0% and 26 to 50%.
For `Oc1nc(-c2ccccn2)nc2c(-c3ccc(CN4CCOCC4)cc3)csc12` [drawing 2274], the inhibition at 30 µM is 0% in test [1] and 26 to 50% in test [2].
As to `O=C(Nc1nnc(-c2ccccn2)[nH]1)C1CC(=O)N(CCc2ccccc2)C1` (stereo not drawn) [drawing 1958], the inhibition at 30 µM in test [1] was 0%; in test [2] it was 1 to 25%.
Turning to `COC(=O)C(C)CN(Cc1ccccc1)c1nc(C(F)(F)F)ccc1C#N` (stereo not drawn) [drawing 2065], the inhibition at 30 µM in test [1] was 0%; in test [2], 26 to 50%.
Regarding `N#Cc1ncn(-c2nc(-c3ccccn3)nc3sc(-c4ccccc4)cc23)n1` [drawing 2132], the inhibition at 30 µM in test [1] and in test [2] was 76 to 100% in each case.
For the molecule `CCN(CC)S(=O)(=O)c1ccc(NCCOC)c(C(=O)NCCSCc2ccc(C)cc2)c1` [drawing 2066], the inhibition at 30 µM in test [1] and in test [2] was 26 to 50% each time.
For the molecule `Cc1cc2nc(-c3ccccn3)nc(N)c2s1` [drawing 2229], the inhibition at 30 µM in test [1] and in test [2] was 1 to 25% each time.
As for `CC(C)COc1ccc(-c2csc3c(O)nc(-c4ccccn4)nc23)cn1` [drawing 2269], the inhibition at 30 µM was 51 to 75% in test [1] and 76 to 100% in test [2].
On to `O=C(CN1CCN(c2nc(-c3ccccn3)nc3sc(-c4ccccc4)cc23)CC1)N1CCCC1` [drawing 2143], for which the inhibition at 30 µM in test [1] and in test [2] was 76 to 100% each time.
For the molecule `CC(C)c1nc(CC(=O)Nc2nnc(-c3ccccn3)[nH]2)cs1` [drawing 1949], the inhibition at 30 µM in test [1] is 0%; in test [2] it was 1 to 25%.
For the molecule `CC(C)(C(=O)Nc1ccnc(-c2ccccn2)n1)c1ccc(C#N)cc1` [drawing 2177], the inhibition at 30 µM was 0% in test [1] and 1 to 25% in test [2].
`C[C@H](NS(=O)(=O)c1ccccc1F)C(=O)Nc1nnc(-c2ccccn2)[nH]1` [drawing 1947]: the inhibition at 30 µM in test [1] was 1 to 25%; in test [2], 51 to 75%.
For `Cn1ccnc1-c1nc(NCCOC(F)(F)F)c2c(-c3ccccc3)c(-c3ccccc3)sc2n1` [drawing 2395], the inhibition at 30 µM was 1 to 25% in test [1] and 26 to 50% in test [2].
On to `COC1CCN(c2nc(-c3nccn3C)nc3sc(-c4ccccc4)c(-c4ccccc4)c23)C1` (stereo not drawn) [drawing 2398], for which the inhibition at 30 µM in test [1] and in test [2] was 76 to 100% throughout.
Turning to `Cc1sc2c(O)nc(-c3nccn3C)nc2c1-c1ccc(OC(C)C)c(F)c1` [drawing 2437], the results for the inhibition at 30 µM in test [1] and in test [2] were 0% and 51 to 75%, respectively.
As to `Oc1nc(-c2ccccn2)nc2c(-c3ccccc3OC3CCCCC3)csc12` [drawing 2258], the inhibition at 30 µM in test [1] fell in the range of 26 to 50%; in test [2], 76 to 100%.
With `Nc1nc(-c2ccccn2)nc2c(Br)csc12` [drawing 2284], the inhibition at 30 µM was 0% in test [1] and 26 to 50% in test [2].
The matching figures for `O=C(NCCc1ccc(O)c(O)c1)c1csc2nc(-c3ccccn3)nc(N3CCOCC3)c12` [drawing 2204]: 0% and 1 to 25%.
Regarding `COCCNc1nc(-c2ccncn2)nc2sc(-c3ccccc3)c(-c3ccccc3)c12` [drawing 2401], the inhibition at 30 µM fell in the range of 51 to 75% in test [1] and 76 to 100% in test [2].
Regarding `COc1ccc2c(c1)CCC2C(=O)Nc1ccnc(-c2ccccn2)n1` (stereo not drawn) [drawing 2207], the figures for the inhibition at 30 µM in test [1] and in test [2] were 0% and 26 to 50%, respectively.
`Oc1nc(-c2ccccn2)nc2cc(-c3ccc(-c4ccccc4)cc3)sc12` [drawing 2386]: the inhibition at 30 µM lay in the range of 1 to 25% in test [1] and 51 to 75% in test [2].
Consider `Nc1cccc(-c2csc3c(O)nc(-c4ccccn4)nc23)n1` [drawing 2341], for which the inhibition at 30 µM is 26 to 50% in test [1] and 76 to 100% in test [2].
The matching figures for `Cc1cc(C(=O)Nc2nc(-c3ccccn3)cs2)no1` [drawing 2009]: 0% and 76 to 100%.
Turning to `CCOC(=O)NC1CCN(C(=O)c2csc3c(O)nc(N)nc23)CC1` [drawing 2095], the inhibition at 30 µM is 1 to 25% in test [1] and 0% in test [2].
In the case of `CC(C)NC(=O)Nc1cccc(C(=O)Nc2nnc(-c3ccccn3)[nH]2)c1` [drawing 1926], the inhibition at 30 µM was 1 to 25% in test [1] and 0% in test [2].
On to `O=C(COCc1cccnc1)Nc1nc(-c2ccccn2)nc2sccc12` [drawing 2222], for which the inhibition at 30 µM is 1 to 25% in test [1] and 51 to 75% in test [2].
The matching figures for `Nc1nc(-c2ccccn2)nc(C(=O)NCCc2ccncc2)c1Oc1ccccc1` [drawing 2378]: 0% and 0%.
Take `Oc1ccc(C2(c3cccc(Cl)c3)CCCC2)cc1` [drawing 2055]: the inhibition at 30 µM in test [1] and in test [2] was 76 to 100% throughout.
`CCC(C)(C)c1ccc(OCCCC(=O)NC(C(=O)OC)C(C)C)c(C(C)(C)CC)c1` (stereo not drawn) [drawing 2054]: the inhibition at 30 µM in test [1] and in test [2] was 26 to 50% throughout.
`CCOCCOc1nc(-c2nccn2C)nc2sc(-c3ccccc3)c(-c3ccccc3)c12` [drawing 2399]: the figures for the inhibition at 30 µM in test [1] and in test [2] were 26 to 50% and 1 to 25%, respectively.
The matching figures for `Cc1sc2c(O)nc(-c3ccccn3)nc2c1-c1ccncc1` [drawing 2331]: 0% and 26 to 50%.
As for `O=C(Cc1cccs1)Nc1nnc(-c2ccccn2)[nH]1` [drawing 1953], the inhibition at 30 µM in test [1] and in test [2] was 1 to 25% each time.
Take `COc1ccc(CCC(=O)Nc2nc(-c3ccccn3)nc3sccc23)cn1` [drawing 2330]: the inhibition at 30 µM was in the range of 51 to 75% in test [1] and 76 to 100% in test [2].
As for `COc1cc(C)c(-c2csc3c(O)nc(-c4ccccn4)nc23)cc1C` [drawing 2261], the inhibition at 30 µM in test [1] is 0%; in test [2], 51 to 75%.
On to `Nc1nc(O)c2scc(C(=O)N3CCC(N4CCOCC4)CC3)c2n1` [drawing 2093], for which the inhibition at 30 µM in test [1] was 1 to 25%; in test [2], 0%.
Regarding `CCN(CC)CCC(C)Nc1nc(-c2ccccn2)nc2sccc12` (stereo not drawn) [drawing 2130], the inhibition at 30 µM in test [1] is 0%; in test [2], 1 to 25%.
The like results for `N#Cc1ccc2c(c1)CCCC2C(=O)Nc1ccnc(-c2ccccn2)n1` (stereo not drawn) [drawing 2248] were, in that order, 0% and 1 to 25%.
For the molecule `Nc1nc(O)c2scc(Br)c2n1` [drawing 2089], the inhibition at 30 µM in test [1] and in test [2] was 1 to 25% throughout.
Turning to `COc1cn(-c2ccccc2)nc1C(=O)Nc1nnc(-c2ccccn2)[nH]1` [drawing 2000], the inhibition at 30 µM in test [1] was 0%; in test [2], 26 to 50%.

The record behind these values is US10940139B2, “Compounds that interact with the Ras superfamily for the treatment of cancers, inflammatory diseases, rasopathies, and fibrotic disease” (Shy Therapeutics LLC, priority 2017, dated 2021).
